“Also recorded” adds a separate entry of the source.
Assays:
[1] = tested on: Tsp-1 and p53 expression in lungs; assay: Tumor-free mice given PC3M-LN4 conditioned media plus peptide; Tsp-1/p53 in tissue by western blot; type: in vivo, C57Bl6 mice; settings: PC3M-LN4 CM in combination with peptide; Western blot, FIG. 3
Procedure: For tumor-free analysis C57Bl6 mice were treated with 200 uL of PC3M-LN4 media alone or in combination with peptides described above at dose of 30 mg/kg/day for 5 days. After treatment the animals were sacrificed and the lungs were harvested, lysed and analyzed for Tsp-1 and p53 protein levels as described previously (Kang et al).
It was sought to determine whether there was a smaller domain within saposin A that contained the p53/Tsp-1 stimulating activity. […] C57Bl6 mice (5-6 wks old) were injected daily with 300 uL of serum free DMEM, conditioned media (CM) from non-metastatic PC3 cells, CM from metastatic PC3M-LN4 cells and PC3M-LN4 CM plus 30 mg/kg of the pegylated 6 amino acid polypeptide (PEG2000-CDWLPK (SEQ ID NO: 46)) or 30 mg/kg of the pegylated 18 amino acid polypeptide (PEG2000-[…] (SEQ ID NO: 47)). After 9 days the mice were euthanized and the lungs and livers harvested and either fixed in formalin or lysed for Western blot analysis.
Finally, the effect of substituting D-amino acids at different residues of the 4-amino acid peptide was analyzed. By Western blot analysis it was observed that substituting the first and third or second and fourth residues, in combination, had no effect on the Tsp-1 stimulating activity in vitro. These peptides were then tested in the tumor-free animal model described above. The normal 4-amino acid peptide and the D-amino acid substituted peptides were injected in combination with conditioned media from PC3M-LN4 cells in adult C57Bl6 mice for 4 days at a dose of 10 or 30 mg/kg/day via i.p. injection. Mice were sacrificed 24 hours after the treatment on day 4. The lungs of these mice were harvested and analyzed the Tsp-1 expression by Western blot analysis. […]
Methods: 18 C57Bl6 mice were injected with Ac-dWlP-amide (SEQ ID NO: 132) at a dose of 30 mg/kg in a volume of 100 μL via intraperitoneal (i.p) injections in serum starved conditioned media from PC3M-LN4 prostate cancer cells. […] The relative intensity of the Tsp-1 (normalized to β-Actin) bands were determined using a Bio-Rad Chemi-Doc XRS system.

[2] = tested on: Tsp-1 and p53 expression in prostate fibroblasts; assay: Tsp-1 and p53 expression in prostate fibroblasts treated with peptides, western blot; type: cell-based; settings: FIG. 2; compared with the longer peptide of the 35-40 region
Procedure: Methods of assaying the effects of a polypeptide described herein on Tsp-1 and p53 expression are described herein. Briefly, a control Psap alongside a test polypeptide, is applied to a cell culture of prostate fibroblasts. The conditioned media from PC3M-LN4 (LN4) and PC3 cells are used as controls, with PC3 as positive/stimulating control and LN4 as negative/inhibiting controls. After a period of incubation (˜16 h), the cells are harvested, rinsed, and lysed. The lysates are analyzed for the level of Tsp-1 and p53 expression by western blot analyses, with β-actin as the internal lysate protein loading control.
These peptides were used to treat prostate and lung fibroblasts in vitro at a concentration of 10 ug/mL for 16 hours in ATCC-specified media supplemented with 0.1% FBS. Tsp-1 and p53 expression was analyzed by western blot as described previously (Kang, Y., et al., (2003) Cancer Cell 3:537-549.)

[3] = tested on: Tsp-1 in white blood cells; assay: Tsp-1 protein in white blood cells of peptide-injected mice, Western blot; type: in vivo; settings: 5 day I.P. injections, 30 mg/kg
Procedure: Mice were injected with DWLPK (SEQ ID NO: 4) or a scramble peptide using 5 day I.P. injections with 30 mg/kg peptide. White blood cells were isolated, protein was extracted, and a Western blot was performed measuring Tsp-1 protein.

[4] = tested on: primary ovarian cancer cells; assay: Intraperitoneal metastatic ovarian cancer model, bioluminescence; type: in vivo, CB-17 SCID mice; settings: 40 mg/kg QD from day 17; after 30 days
Procedure: For metastatic ovarian cancer cell injections, 5×10^6 viable primary ovarian cancer cells were injected into CB-17 SCID mice intraperitoneally in a volume of 0.1 ml. Tumor growth was monitored by live animal bioluminescence imaging (Xenogen) once per week. For in vivo determination of the metastatic burden, mice were anaesthetized and injected intraperitoneally with 75 mg/kg of D-luciferin (100 uL of 30 mg/mL in PBS). Metastatic growth was monitored over time using bioluminescence imaging performed with mice in a supine position 5 min after D-luciferin injection with a Xenogen IVIS system coupled to Living Image acquisition and analysis software (Xenogen). For BLI plots, photon flux was calculated for each mouse by using the same circular region of interest encompassing the abdomen of the mouse.
To determine whether DWLPK (SEQ ID NO: 4) could inhibit or regress existing ovarian metastases 5×10^6 primary ovarian cancer cells were injected intraperitoneally into SCID mice. After 17 days treatment was initiated with DWLPK (SEQ ID NO: 4) at a dose of 40 mg/kg QD, cisplatin at a dose of 2 mg/kg QOD, a combination of DWLPK (SEQ ID NO: 4) and cisplatin at the same doses, or PBS (control). It was observed that DWLPK (SEQ ID NO: 4) treatment completely regressed the metastases in 11/12 after 30 days and the regressed the metastases in the remaining mice by 99% (FIG. 20).

“DWLPK [5-amino acid peptide corresponding to residues 36-40 of saposin A]” was tested. Which “Tsp-1 and p53 expression in the lungs above basal levels” value [1] did it give?
The value was 6 fold.

What about the “ability to stimulate Tsp-1 in prostate fibroblasts after removing a terminal residue” value [2] of the same substance?
The value was “increased the ability of the resulting 5-amino acid peptide to stimulate Tsp-1”.

And the “Tsp-1 protein in white blood cells” value [3]?
Its value is “upregulated; also recorded: increased Tsp-1 expression”.

And the “mice with completely regressed metastases” value [4]?
The value was 11/12.

What about the “regression of the metastases in the remaining mice” value [4] of the same substance?
Its value is 99%.
